Laboratory results reported in article PMC7391767, “Molecular mechanisms underlying menthol binding and activation of TRPM8 ion channel” (Nature Communications, 2020).
pKd: −log10 of the molar value. Several values for one entry are separate records, joined by “and”; a condition that tells them apart may be missing. Equal values may be shown once. Read-outs that look alike come from different tables or passages of the source.

What was measured:
Assay type in all cases: cell-based
wild-type TRPM8 [1] = target: T1, wild-type TRPM8 (Mus musculus, UniProt Q8R4D5); test: open probability from noise analysis of macroscopic current and single-channel recordings; details: wild-type TRPM8; near saturating concentration (menthol 500 µM)
T1 construct: expressed in transfected cells; host or cells: HEK293T
Method: (§1) Patch-clamp recordings were performed with a HEKA EPC10 amplifier controlled by PatchMaster software (HEKA). Whole-cell recordings were performed at ±80 mV. Patch pipettes were prepared from borosilicate glass and fire-polished to resistance of ~4 MΩ. For whole-cell recording, serial resistance was compensated by 60%. For single-channel recordings, patch pipettes were fire-polished to a higher resistance of 6-to-10 MΩ and then recorded in the inside-out configuration. To maximize the chance of obtaining a patch with only one channel, single-channel recordings were performed about 8 h after transfection. A solution with 130 mM NaCl, 10 mM glucose, 0.2 mM EDTA, and 3 mM HEPES (pH 7.2) was used in both bath and pipette for either whole-cell or single-channel recordings. Membrane potential was clamped at +80 mV for single-channel recordings. Current was sampled at 10 kHz and filtered at 2.9 kHz. All recordings were performed at room temperature (22 °C) with the maximum variation of 1 °C.
From single-channel recordings, the open probability (Po) was calculated after events detection with a hidden Markov approach in the software QuB[49] (http://www.qub.buffalo.edu/). A dead time of 0.32 ms was imposed. As a complementary approach, Po was also estimated from noise analysis[52] of whole-cell recordings. Briefly, the mean current amplitude (I), the squared deviations in current amplitude from the mean value (σ^2), and the single-channel current (i) were measured experimentally from a membrane patch of ion channels. Then the number of ion channels clamped in that patch (N) was determined as3 N=I^2/i⋅I−σ^2.
The maximum current when each of ion channel is at the open state with a Po of 1 is equal to i × N. Then the open probability was calculated as the ratio between the measured macroscopic current and the maximum current calculated by noise analysis. To estimate channel conductance, current amplitude was estimated from all-point histogram of single-channel recordings.

TRPM8 Y745F = target: T2, TRPM8 Y745F (Mus musculus, UniProt Q8R4D5, Y745F); test: whole-cell patch-clamp and thermodynamic mutant cycle analysis
T2 construct: expressed in transfected cells; host or cells: HEK293T
Method: (§2) Murine TRPM8 was used in this study. Point mutations were made by Fast Mutagenesis Kit V2 (SBS Genetech). Primers used to generate point mutations are summarized in Supplementary Table 2. All mutations were confirmed by sequencing.
(§3) HEK293T cells purchased from Kunming Cell Bank, Kunming Institute of Zoology, Chinese Academy of Sciences (ATCC, CRL-3216) were cultured in Dulbecco’s modified Eagle’s medium supplemented with 20 mM L-glutamine and 10% fetal bovine serum. Cells were transiently transfected with cDNA constructs by Lipofectamine 3000 (Life Technologies) following the manufacturer’s protocol. Patch-clamp recordings were performed 1–2 days after transfection.
as §1
(§4) Ligands such as menthol and its analogs were perfused to membrane patch by a gravity-driven system (RSC-200, Bio-Logic). Bath and ligand solution were delivered through separate tubes to minimize the mixing of solutions. Patch pipette was placed in front of the perfusion tube outlet.
(§5) Data from whole-cell recordings were analyzed in Igor Pro version 6.1 (WaveMatrix). EC50 values were derived from fitting a Hill equation to the concentration–response relationship. Changes in EC50 by point mutation may be caused by either perturbation of ligand bind or channel gating or both. To distinguish these possibilities, dissociation constant (Kd) for ligand binding was estimated assuming the following gating scheme:1 C0↔KdC1↔LO, where L is the equilibrium constant for the final closed-to-open transition.
(§6) To perform thermodynamic cycle analysis, Kd values of four channel-ligand combinations (WT channel, menthol: Kd _1; Mutant channel, menthol: Kd _2; WT channel, menthol analog: Kd _3; Mutant channel, menthol analog: Kd _4) were determined separately. The strength of coupling was determined by the coupling energy (kT multiplied by LnΩ, where k is the Boltzmann constant and T is temperature in Kelvin). LnΩ was calculated by Eq. (2) as[51]2 LnΩ=LnKd_1⋅Kd_4/Kd_2⋅Kd_3.

TRPM8 V775A = target: T3, TRPM8 V775A (Mus musculus, UniProt Q8R4D5, V775A); test: as above
T3 construct: expressed in transfected cells; host or cells: HEK293T
Method: as §2, §3, §1, §4, §5, §6

TRPM8 F839A = target: T4, TRPM8 F839A (Mus musculus, UniProt Q8R4D5, F839A); test: as above
T4 construct: expressed in transfected cells; host or cells: HEK293T
Method: as §2, §3, §1, §4, §5, §6

TRPM8 I846V = target: T5, TRPM8 I846V (Mus musculus, UniProt Q8R4D5, I846V); test: as above
T5 construct: expressed in transfected cells; host or cells: HEK293T
Method: as §2, §3, §1, §4, §5, §6

TRPM8 L843I = target: T6, TRPM8 L843I (Mus musculus, UniProt Q8R4D5, L843I); test: as above
T6 construct: expressed in transfected cells; host or cells: HEK293T
Method: as §2, §3, §1, §4, §5, §6

TRPM8 L843V = target: T7, TRPM8 L843V (Mus musculus, UniProt Q8R4D5, L843V); test: as above
T7 construct: expressed in transfected cells; host or cells: HEK293T
Method: as §2, §3, §1, §4, §5, §6

TRPM8 L843A = target: T8, TRPM8 L843A (Mus musculus, UniProt Q8R4D5, L843A); test: as above
T8 construct: expressed in transfected cells; host or cells: HEK293T
Method: as §2, §3, §1, §4, §5, §6

wild-type TRPM8 [2] = target: T1, wild-type TRPM8; test: whole-cell patch-clamp recording of ligand activation; details: WT
Method: Murine TRPM8 was used in this study. Point mutations were made by Fast Mutagenesis Kit V2 (SBS Genetech). Primers used to generate point mutations are summarized in Supplementary Table 2.
Cells were transiently transfected with cDNA constructs by Lipofectamine 3000 (Life Technologies) following the manufacturer’s protocol. Patch-clamp recordings were performed 1–2 days after transfection.
as §1, §4
Data from whole-cell recordings were analyzed in Igor Pro version 6.1 (WaveMatrix). EC50 values were derived from fitting a Hill equation to the concentration–response relationship. […] To distinguish these possibilities, dissociation constant (Kd) for ligand binding was estimated assuming the following gating scheme:1 C0↔KdC1↔LO, where L is the equilibrium constant for the final closed-to-open transition.

[3] = mutant cycle menthol vs labelled analog

T3 sequence (Q8R4D5 whole entry V775A): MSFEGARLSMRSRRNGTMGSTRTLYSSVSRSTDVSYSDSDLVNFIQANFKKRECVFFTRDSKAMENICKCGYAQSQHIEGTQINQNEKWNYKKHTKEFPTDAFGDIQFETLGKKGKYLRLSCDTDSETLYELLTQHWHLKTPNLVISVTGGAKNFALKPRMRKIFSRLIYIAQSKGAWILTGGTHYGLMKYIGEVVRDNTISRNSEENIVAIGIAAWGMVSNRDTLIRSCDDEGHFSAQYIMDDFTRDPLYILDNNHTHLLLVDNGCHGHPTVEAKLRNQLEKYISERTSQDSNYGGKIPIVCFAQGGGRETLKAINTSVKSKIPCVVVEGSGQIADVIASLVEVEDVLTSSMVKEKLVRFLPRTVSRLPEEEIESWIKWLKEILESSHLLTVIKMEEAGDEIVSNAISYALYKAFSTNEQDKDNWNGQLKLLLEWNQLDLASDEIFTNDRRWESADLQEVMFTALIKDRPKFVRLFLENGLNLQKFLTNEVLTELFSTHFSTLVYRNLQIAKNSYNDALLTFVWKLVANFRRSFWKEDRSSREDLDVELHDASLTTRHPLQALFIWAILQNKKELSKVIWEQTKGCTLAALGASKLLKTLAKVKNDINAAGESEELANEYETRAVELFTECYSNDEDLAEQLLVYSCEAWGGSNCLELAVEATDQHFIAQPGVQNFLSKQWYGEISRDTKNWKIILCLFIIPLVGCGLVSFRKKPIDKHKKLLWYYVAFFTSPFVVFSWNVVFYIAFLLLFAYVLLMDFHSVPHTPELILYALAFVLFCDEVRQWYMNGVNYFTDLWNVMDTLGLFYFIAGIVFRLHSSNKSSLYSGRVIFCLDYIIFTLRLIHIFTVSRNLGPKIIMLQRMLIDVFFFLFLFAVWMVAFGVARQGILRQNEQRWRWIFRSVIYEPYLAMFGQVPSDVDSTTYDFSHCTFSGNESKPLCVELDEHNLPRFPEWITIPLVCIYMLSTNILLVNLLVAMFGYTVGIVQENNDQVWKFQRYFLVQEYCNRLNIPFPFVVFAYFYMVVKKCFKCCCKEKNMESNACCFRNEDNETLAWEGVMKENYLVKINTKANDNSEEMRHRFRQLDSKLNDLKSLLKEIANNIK
T7 sequence (Q8R4D5 whole entry L843V): as the sequence (Q8R4D5 whole entry V775A) above, with A775V, L843V counted along it
T5 sequence (Q8R4D5 whole entry I846V): as the sequence (Q8R4D5 whole entry V775A) above, with A775V, I846V counted along it
T4 sequence (Q8R4D5 whole entry F839A): as the sequence (Q8R4D5 whole entry V775A) above, with A775V, F839A counted along it
T6 sequence (Q8R4D5 whole entry L843I): as the sequence (Q8R4D5 whole entry V775A) above, with A775V, L843I counted along it
T8 sequence (Q8R4D5 whole entry L843A): as the sequence (Q8R4D5 whole entry V775A) above, with A775V, L843A counted along it
T2 sequence (Q8R4D5 whole entry Y745F): as the sequence (Q8R4D5 whole entry V775A) above, with Y745F, A775V counted along it
T1 sequence (Q8R4D5 whole entry): as the sequence (Q8R4D5 whole entry V775A) above, with A775V counted along it

With `CC1CCCC(O)C1` (stereo not shown) [3-methylcyclohexanol] the “maximum open probability (Po max)” value (wild-type TRPM8 [1]) was “much reduced”, the “Ratio X2 (Kd menthol / Kd labelled analog)” value (TRPM8 Y745F) was 5.57 and the “Omega(X1/X2)” value (TRPM8 Y745F; menthol vs labelled analog) was 0.28. The “Coupling Energy” value (TRPM8 Y745F; [3]) was 1.29 kT, the “Ratio X2 (Kd menthol / Kd labelled analog)” value (TRPM8 V775A) was 3.60 and the “Omega(X1/X2)” value (TRPM8 V775A; menthol vs labelled analog) was 0.43. For the same compound, the “Coupling Energy” value (TRPM8 V775A; [3]) was 0.86 kT, the “Ratio X2 (Kd menthol / Kd labelled analog)” value (TRPM8 F839A) was 0.34 and the “Omega(X1/X2)” value (TRPM8 F839A; menthol vs labelled analog) was 4.45. For the same compound, the “Coupling Energy” value (TRPM8 F839A; [3]) was 1.49 kT, the “L (equilibrium constant between closed and open states upon ligand binding), Ave” value (TRPM8 I846V) was 5.486 and the “Ratio X2 (Kd menthol / Kd labelled analog)” value (TRPM8 I846V) was 0.0226. For the same compound, the “concentration–response curve value, ave” value (TRPM8 I846V; 100 microM) was 0.2999, the “concentration–response curve value, single recording” value (TRPM8 I846V; 100 microM) was 0.4 and 0.341 and 0.2563 and 0.2026 and the “concentration–response curve value, ave” value (TRPM8 I846V; 500 microM) was 0.4287. The “concentration–response curve value, single recording” value (TRPM8 I846V; 500 microM) was 0.5097 and 0.4021 and 0.4664 and 0.3363, the “concentration–response curve value, ave” value (TRPM8 I846V; 5000 microM) was 0.6797 and the “concentration–response curve value, single recording” value (TRPM8 I846V; 5000 microM) was 0.6614 and 0.7654 and 0.6405 and 0.6515. The “concentration–response curve value, ave” value (TRPM8 I846V; 10000 microM) was 0.686, the “concentration–response curve value, single recording” value (TRPM8 I846V; 10000 microM) was 0.6689 and 0.7334 and 0.6291 and 0.7125 and the pKd (TRPM8 I846V; calculated from concentration–response curves, read-out: Kd, Ave) was 2.28. The “concentration–response curve value, ave” value (TRPM8 I846V; concentration cell empty) was 0.07916, the “Omega(X1/X2)” value (TRPM8 I846V; menthol vs labelled analog) was 67.65 and the “Coupling Energy” value (TRPM8 I846V; [3]) was 4.21 kT. The pKd (TRPM8 I846V; read-out: Kd, single recording) was 2.34 and 2.80 and 2.58 and 1.91, the “Ratio X2 (Kd menthol / Kd labelled analog)” value (TRPM8 L843I) was 0.32 and the “Omega(X1/X2)” value (TRPM8 L843I; menthol vs labelled analog) was 4.84. For the same compound, the “Coupling Energy” value (TRPM8 L843I; [3]) was 1.58 kT, the “Ratio X2 (Kd menthol / Kd labelled analog)” value (TRPM8 L843V) was 1.21 and the “Omega(X1/X2)” value (TRPM8 L843V; menthol vs labelled analog) was 1.27. For the same compound, the “Coupling Energy” value (TRPM8 L843V; [3]) was 0.24 kT, the “Ratio X2 (Kd menthol / Kd labelled analog)” value (TRPM8 L843A) was 10.91 and the “Omega(X1/X2)” value (TRPM8 L843A; menthol vs labelled analog) was 0.14. For the same compound, the “Coupling Energy” value (TRPM8 L843A; [3]) was 1.96 kT, the “L (equilibrium constant between closed and open states upon ligand binding), Ave” value (wild-type TRPM8 [2]) was 0.1737 and the “L, single recording” value (wild-type TRPM8 [2]) was 0.1532 and 0.192 and 0.1757. The “Ratio X1 (Kd menthol / Kd labelled analog)” value (wild-type TRPM8 [2]) was 1.53, the “concentration–response curve value, ave” value (wild-type TRPM8 [2]; 100 microM) was 0.03758 and the “concentration–response curve value, single recording” value (wild-type TRPM8 [2]; 100 microM) was 0.03758. The “concentration–response curve value, ave” value (wild-type TRPM8 [2]; 500 microM) was 0.06444, the “concentration–response curve value, single recording” value (wild-type TRPM8 [2]; 500 microM) was 0.0748 and 0.0637 and 0.05481 and the “concentration–response curve value, ave” value (wild-type TRPM8 [2]; 1000 microM) was 0.104. For the same compound, the “concentration–response curve value, single recording” value (wild-type TRPM8 [2]; 1000 microM) was 0.09939 and 0.1207 and 0.09185, the “concentration–response curve value, ave” value (wild-type TRPM8 [2]; 5000 microM) was 0.1359 and the “concentration–response curve value, single recording” value (wild-type TRPM8 [2]; 5000 microM) was 0.1092 and 0.1503 and 0.1483. The “concentration–response curve value, ave” value (wild-type TRPM8 [2]; 10000 microM) was 0.1449, the “concentration–response curve value, single recording” value (wild-type TRPM8 [2]; 10000 microM) was 0.1156 and 0.169 and 0.1502 and the pKd (wild-type TRPM8 [2]; calculated from concentration–response curves (EC50 and Po max), read-out: Kd, Ave) was 3.20. The pKd (wild-type TRPM8 [2]; read-out: Kd, single recording) was 3.57 and 3.14 and 3.05.
